Test results from the supplement of paper PMC11208160.

assay: recombinant UMI read abundance after kanamycin selection (control-corrected) (log10(CPM+1)); higher = more efficient recombination; extreme values may be limits of the assay; sequences stand for … in AGTGCAGAGAAAATCGGCCAGTTTTCTCTGCCTGCAGTCCGCATGCCGTGGGACCCCTTGGGTTCTAACCTGTTGCCTAGATTTATGCAGCGGACTGCCTTTCTCCCAAAGTGATAAACCGG…AGGTTGGTTTCACT; site = the 11-nt donor
Outline: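 Under IPTG (0.07 mM) plus kanamycin, or without selection, Escherichia coli carrying a UMI-tagged donor and donor-binding-loop pair library and a target plasmid for the IS621 bridge recombinase were plated in two replicates. Recombinant UMIs were PCR-amplified across the donor–target junction and sequenced. Counts were converted to CPM, averaged over replicates, scaled by control-derived factors and reported as log10(CPM+1).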
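Also: IS621 bridge recombinase in Escherichia coli cells against a fixed T5 target plasmid.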

| Sequence | recombinant UMI read abundance (log10) |
| --- | --- |
| GAGCTCACATGGACCGGTTTTCCCGGTAATCCGTATTTGCT (site GAGCTCACTAG) | 2.24 |
| GAGCTCACATGGACCGGTTTTCCCGGTAATCCGTATTTGCT (site GAGCTCACTAT) | 1.14 |
| GAGCTGACATGGACCGGTTTTCCCGGTAATCCGTATTTGAT (site GAGCTAACTAT) | 2.08 |
| GAGCTGACATGGACCGGTTTTCCCGGTAATCCGTATTTGAT (site GAGCTCACTAT) | 0.0113 |
| GAGCTGACATGGACCGGTTTTCCCGGTAATCCGTATTTGAT (site GAGCTGACTAT) | 2.09 |
| GAGCTGACATGGACCGGTTTTCCCGGTAATCCGTATTTGAT (site GAGCTTACTAT) | 0.154 |
| GAGCTGCCATGGACCGGTTTTCCCGGTAATCCGTATTTGCG (site GAGCTGCCTCG) | 0.232 |
| GAGGAACCATGGACCGGTTTTCCCGGTAATCCGTATTTGTT (site GAGGAACCTAA) | 0 |
| GAGGATTCATGGACCGGTTTTCCCGGTAATCCGTATTTGTT (site GAAGATTCTAA) | 1.46 |
| GAGGATTCATGGACCGGTTTTCCCGGTAATCCGTATTTGTT (site GACGATTCTAA) | 0.365 |
| GAGGATTCATGGACCGGTTTTCCCGGTAATCCGTATTTGTT (site GAGGATTCTAA) | 2.83 |
| GAGGATTCATGGACCGGTTTTCCCGGTAATCCGTATTTGTT (site GATGATTCTAA) | 0.0156 |
| GAGGGGCCATGGACCGGTTTTCCCGGTAATCCGTATTTGGC (site GAGGGGCCTGC) | 0 |
| GAGTACCCATGGACCGGTTTTCCCGGTAATCCGTATTTGTT (site GAGTACCCTAA) | 0.0215 |
| GAGTGCGCATGGACCGGTTTTCCCGGTAATCCGTATTTGTC (site GAGTGCGCTGA) | 2.71 |
| GAGTGGCCATGGACCGGTTTTCCCGGTAATCCGTATTTGCA (site GAATGGCCTTG) | 0 |
| GAGTGGCCATGGACCGGTTTTCCCGGTAATCCGTATTTGCA (site GACTGGCCTTG) | 0 |
| GAGTGGCCATGGACCGGTTTTCCCGGTAATCCGTATTTGCA (site GAGTGGCCTTG) | 0 |
| GAGTGGCCATGGACCGGTTTTCCCGGTAATCCGTATTTGCA (site GATTGGCCTTG) | 0 |
| GAGTTGGCATGGACCGGTTTTCCCGGTAATCCGTATTTGTA (site GAGTTGGCTTA) | 2.18 |
| GATAAGGCATGGACCGGTTTTCCCGGTAATCCGTATTTGCG (site GATAAGGCTCG) | 1.83 |
| GATAAGGCATGGACCGGTTTTCCCGGTAATCCGTATTTGGC (site GATAAGGCTGC) | 1.3 |
| GATATGCCATGGACCGGTTTTCCCGGTAATCCGTATTTGCT (site GATATGCCTAG) | 0 |
| GATCCACCATGGACCGGTTTTCCCGGTAATCCGTATTTGGT (site GATCCACCTAC) | 0.0102 |
| GATCGACCATGGACCGGTTTTCCCGGTAATCCGTATTTGTC (site GATCGACCTGA) | 0 |

| Sequence | recombinant UMI read abundance (log10) |
| --- | --- |
| GATCGAGCATGGACCGGTTTTCCCGGTAATCCGTATTTGCA (site GATCGAGCTTG) | 1.04 |
| GATCGAGCATGGACCGGTTTTCCCGGTAATCCGTATTTGCA (site GCTCGAGCTTG) | 1.17 |
| GATCGAGCATGGACCGGTTTTCCCGGTAATCCGTATTTGCA (site GGTCGAGCTTG) | 1.15 |
| GATCGAGCATGGACCGGTTTTCCCGGTAATCCGTATTTGCA (site GTTCGAGCTTG) | 1.58 |
| GATCGTGCATGGACCGGTTTTCCCGGTAATCCGTATTTGGC (site GATCGTGCTGC) | 1.18 |
| GATCTAACATGGACCGGTTTTCCCGGTAATCCGTATTTGTC (site GATCTAACTGA) | 0 |
| GATCTGCCATGGACCGGTTTTCCCGGTAATCCGTATTTGAT (site GATCTGCCTAT) | 0.0121 |
| GATGAGACATGGACCGGTTTTCCCGGTAATCCGTATTTGAA (site GATGAGACTTT) | 1.82 |
| GATTAACCATGGACCGGTTTTCCCGGTAATCCGTATTTGCT (site GATTAACCTAG) | 0 |
| GATTAACCATGGACCGGTTTTCCCGGTAATCCGTATTTGCT (site GATTACCCTAG) | 0 |
| GATTAACCATGGACCGGTTTTCCCGGTAATCCGTATTTGCT (site GATTAGCCTAG) | 0 |
| GATTAACCATGGACCGGTTTTCCCGGTAATCCGTATTTGCT (site GATTATCCTAG) | 0.0295 |
| GATTAGCCATGGACCGGTTTTCCCGGTAATCCGTATTTGCT (site GATTAACCTAG) | 0 |
| GATTAGCCATGGACCGGTTTTCCCGGTAATCCGTATTTGCT (site GATTACCCTAG) | 0 |
| GATTAGCCATGGACCGGTTTTCCCGGTAATCCGTATTTGCT (site GATTAGCCTAG) | 0 |
| GATTAGCCATGGACCGGTTTTCCCGGTAATCCGTATTTGCT (site GATTATCCTAG) | 0 |
| GATTATACATGGACCGGTTTTCCCGGTAATCCGTATTTGCT (site GATTATACTAG) | 1.87 |
| GATTATACATGGACCGGTTTTCCCGGTAATCCGTATTTGCT (site GATTATCCTAG) | 0 |
| GATTATACATGGACCGGTTTTCCCGGTAATCCGTATTTGCT (site GATTATGCTAG) | 0 |
| GATTATACATGGACCGGTTTTCCCGGTAATCCGTATTTGCT (site GATTATTCTAG) | 0 |
| GATTATCCATGGACCGGTTTTCCCGGTAATCCGTATTTGCA (site GATTATCCTAG) | 0 |
| GATTATCCATGGACCGGTTTTCCCGGTAATCCGTATTTGCA (site GATTATCCTCG) | 0 |
| GATTATCCATGGACCGGTTTTCCCGGTAATCCGTATTTGCA (site GATTATCCTGG) | 0 |
| GATTATCCATGGACCGGTTTTCCCGGTAATCCGTATTTGCA (site GATTATCCTTG) | 0 |
| GATTATCCATGGACCGGTTTTCCCGGTAATCCGTATTTGCG (site GATTATCCTAG) | 0 |

| Sequence | recombinant UMI read abundance (log10) |
| --- | --- |
| GATTATCCATGGACCGGTTTTCCCGGTAATCCGTATTTGCG (site GATTATCCTCG) | 0.363 |
| GATTATCCATGGACCGGTTTTCCCGGTAATCCGTATTTGCG (site GATTATCCTGG) | 0 |
| GATTATCCATGGACCGGTTTTCCCGGTAATCCGTATTTGCG (site GATTATCCTTG) | 0 |
| GATTATTCATGGACCGGTTTTCCCGGTAATCCGTATTTGCT (site GATTATACTAG) | 0 |
| GATTATTCATGGACCGGTTTTCCCGGTAATCCGTATTTGCT (site GATTATCCTAG) | 0 |
| GATTATTCATGGACCGGTTTTCCCGGTAATCCGTATTTGCT (site GATTATGCTAG) | 0 |
| GATTATTCATGGACCGGTTTTCCCGGTAATCCGTATTTGCT (site GATTATTCTAG) | 1.96 |
| GATTCACCATGGACCGGTTTTCCCGGTAATCCGTATTTGCG (site GATTCACCTCG) | 0.00637 |
| GATTCCCCATGGACCGGTTTTCCCGGTAATCCGTATTTGGG (site TTAGGTTCTGA) | 0 |
| GATTCTCCATGGACCGGTTTTCCCGGTAATCCGTATTTGCT (site GATTATCCTAG) | 0 |
| GATTCTCCATGGACCGGTTTTCCCGGTAATCCGTATTTGCT (site GATTCTCCTAG) | 0.753 |
| GATTCTCCATGGACCGGTTTTCCCGGTAATCCGTATTTGCT (site GATTGTCCTAG) | 0 |
| GATTCTCCATGGACCGGTTTTCCCGGTAATCCGTATTTGCT (site GATTTTCCTAG) | 0 |
| GATTGGACATGGACCGGTTTTCCCGGTAATCCGTATTTGGC (site GATTGGACTGA) | 0 |
| GATTGGACATGGACCGGTTTTCCCGGTAATCCGTATTTGGC (site GATTGGACTGC) | 1.65 |
| GATTGGACATGGACCGGTTTTCCCGGTAATCCGTATTTGGC (site GATTGGACTGG) | 0 |
| GATTGGACATGGACCGGTTTTCCCGGTAATCCGTATTTGGC (site GATTGGACTGT) | 1.63 |
| GATTGGCCATGGACCGGTTTTCCCGGTAATCCGTATTTGAC (site GATTGGACTGT) | 0 |
| GATTGGCCATGGACCGGTTTTCCCGGTAATCCGTATTTGAC (site GATTGGCCTGT) | 0 |
| GATTGGCCATGGACCGGTTTTCCCGGTAATCCGTATTTGAC (site GATTGGGCTGT) | 0 |
| GATTGGCCATGGACCGGTTTTCCCGGTAATCCGTATTTGAC (site GATTGGTCTGT) | 0 |
| GATTGGCCATGGACCGGTTTTCCCGGTAATCCGTATTTGCA (site GAATGGCCTTG) | 0 |
| GATTGGCCATGGACCGGTTTTCCCGGTAATCCGTATTTGCA (site GACTGGCCTTG) | 0 |
| GATTGGCCATGGACCGGTTTTCCCGGTAATCCGTATTTGCA (site GAGTGGCCTTG) | 0 |
| GATTGGCCATGGACCGGTTTTCCCGGTAATCCGTATTTGCA (site GATTGGCCTTG) | 0.00508 |
